Results reported in patent US20100221763A1, “Specific Acceptors for Transferases to Saccharides and Method for Obtaining and Using Same” (Health Research, Inc, priority 2005, published 2010).

How the values were obtained:
[1] = test system: α1,2-L-FT of colon tumor CC9338; experiment: α1,2-L-FT assay, colon tumor extract; format: biochemical, human; conditions: 1 mg protein of the tissue extract
Protocol: (§1) Colon tumor tissue (CC9338) and breast tumor tissue (BC9400) were obtained during surgical procedures at Roswell Park Cancer Institute and stored frozen within 1 h at −70° C. The tissues were homogenized at 4° C. with 4 volumes of 0.1M Tris Maleate […] 0.1% NaN3 using kinematica. After adjusting the concentration of Triton X-100 to 2%, these homogenates were mixed in the cold room for 1 h using Speci-Mix (Thermolyne) and then centrifuged at 20,000 g for 1 h at 4° C. The clear fat-free supernatant was stored frozen at −20° C. until use. Aliquots of 10 μL from this extract were used in assays run in duplicates. Glycosyltransferase activity in cell lysate was determined by mixing the lysates with acceptor and radiolabeled donor (monosaccharide) under the reaction conditions detailed below, followed by separation of un-reacted donor from the radioactive product using anionic or hydrophobic chromatography. In all cases, the radioactive content of isolated products was determined by using 3a70 scintillation cocktail (Research Products International, Mount Prospect, Ill.) and a Beckman LS6500 scintillation counter. Controls for each assay contained the reaction mixture with everything except the acceptor. All assays were run in duplicate.
(§2) α1,2, α1,6-, α1,3- and α1,4-fucosyltransferase (FT) assay reactions were carried out for 2 h in a reaction mixture containing 50 mM Hepes buffer (pH 7.5), 5 mM MnCl2, 7 mM ATP, 3 mM NaN3, 3 mM synthetic acceptor or 40 μg of fetuin-based acceptor, 0.05 μCi GDP-[14C]Fuc (290 mCi/mmol) and 10 μl cell extract in a total volume of 20 μl [Chandrasekaran et al., 1996]. Sulfotransferase (Sulfo T) assay reactions took 2 h and required a mixture containing 100 mM Tris-maleate (pH 7.2), 5 mM Mg Acetate, 5 mM ATP, 10 mM NaF, 10 mM BAL, 7.5 mM acceptor, 0.5 μCi of [^35S]PAPS (specific activity 2.4 Ci/mmol) and 10 μl of cell extract in a total volume of 30 μl [Chandrasekaran et al., 2004].
(§3) Dowex-1-C1 or Sep-Pak C18 cartridges were used to isolate radiolabeled product from the reaction mixture. For GalT, GalNAc-T and FT assays, the incubation mixture was diluted with 1 ml water and passed through a 1 ml Dowex-1-C1 column [Chandrasekaran et al., 1996; Chandrasekaran et al., 2001]. The column was washed twice with 1 ml of water. The breakthrough and the water wash contained the [^14C]-galactosylated or [^14C]-fucosylated products formed with neutral acceptors. 3 ml of 0.1M NaCl was used to obtain [^14C]-fucosylated products from sialylated acceptors after water elution. For sialytransferase assays, the radioactive products from benzylglycosides were separated by hydrophobic chromatography on Sep-Pak C18 cartridge (Waters, Milford, Mass.), and elution of the product was done with 3 ml methanol [Palcic et al., 1988]. […]

[2] = test system: α1,2-L-FT of breast tumor BC9400; experiment: α1,2-L-FT assay, breast tumor extract; format: biochemical, human; conditions: 1 mg protein of the tissue extract
Protocol: as §1, §2, §3

[3] = target: T1, Rat recombinant α2,3(O)ST (Rattus norvegicus, UniProt Q11205); experiment: Sialyltransferase assay with cloned α2,3(O)ST; format: biochemical; conditions: Table I; acceptor 7.5 mM; 100% = 40560 CPM (3-O-MeGalβ1,4GlcNAcβ1,6(Galβ1,3)GalNAcα-O-Bn)
T1 construct: purchased Calbiochem
T1 sequence (Q11205 1-350): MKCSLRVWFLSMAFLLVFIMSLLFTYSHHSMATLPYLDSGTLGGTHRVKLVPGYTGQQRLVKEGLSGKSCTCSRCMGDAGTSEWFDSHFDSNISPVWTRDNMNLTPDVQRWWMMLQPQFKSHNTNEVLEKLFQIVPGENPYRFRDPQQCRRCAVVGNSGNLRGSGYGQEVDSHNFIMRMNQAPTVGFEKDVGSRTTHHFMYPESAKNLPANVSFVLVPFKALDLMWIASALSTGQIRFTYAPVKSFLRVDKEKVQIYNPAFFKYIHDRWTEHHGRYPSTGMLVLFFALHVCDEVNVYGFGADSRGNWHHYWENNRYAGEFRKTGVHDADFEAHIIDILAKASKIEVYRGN

[4] = test system: LNCaP α2,3(O)ST; experiment: Sialyltransferase assay with LNCaP cell extract; format: biochemical, human; conditions: Table I; acceptor 7.5 mM; 100% = 30930 CPM (3-O-MeGalβ1,4GlcNAcβ1,6(Galβ1,3)GalNAcα-O-Bn)
Procedure, shortened: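 LNCaP Triton X-100 extract (5 mg protein/ml; 0.1M Tris-maleate pH6.3) incubated with acceptor (typically 7.5 mM) and CMP-[9-3H]NeuAc (typically 0.2 μCi) in 0.1M Na cacodylate pH6.0, 2 h at 37 °C, in duplicate. Radioactive product separated on Dowex-1-formate, Sep-Pak C18 or Biogel P2 and counted by scintillation; blank without acceptor subtracted.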

[5] = test system: α1,2-L-FT plus α1,4-L-FT of colon tumor CC9338; experiment: α1,2-L-FT plus α1,4-L-FT assay, colon tumor extract; format: biochemical, human; conditions: 1 mg protein of the tissue extract
Protocol: as §1, with “duplicate. […]” for “duplicate.”

[6] = test system: α1,2-L-FT plus α1,4-L-FT of breast tumor BC9400; experiment: α1,2-L-FT plus α1,4-L-FT assay, breast tumor extract; format: biochemical, human; conditions: 1 mg protein of the tissue extract
Protocol: as §1, with “duplicate. […]” for “duplicate.”

[7] = target: T2, human FTVII (Homo sapiens, UniProt Q11130); experiment: [14C]Fuc transfer by FTVII from extracts of transfected COS-7 cells; format: biochemical; conditions: extracts of COS-7 cells transfected with FTVII cDNA; unpublished results
T2 construct: expressed in transfected cells; host or cells: COS-7
T2 sequence (Q11130 whole entry): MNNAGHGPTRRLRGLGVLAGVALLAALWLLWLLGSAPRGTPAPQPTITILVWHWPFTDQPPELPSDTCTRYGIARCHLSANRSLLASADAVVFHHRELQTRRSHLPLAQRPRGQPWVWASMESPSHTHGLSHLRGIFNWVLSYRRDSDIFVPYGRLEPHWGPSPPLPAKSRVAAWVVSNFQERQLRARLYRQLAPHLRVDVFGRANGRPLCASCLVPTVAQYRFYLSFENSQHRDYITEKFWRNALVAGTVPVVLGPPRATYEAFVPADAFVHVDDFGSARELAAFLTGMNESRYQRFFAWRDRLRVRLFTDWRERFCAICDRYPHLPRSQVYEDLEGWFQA
From the text: The sialylation steps in this reaction scheme were validated by analyzing reaction products using mass spectroscopy (Table VI).

[8] = test system: Siglec 4 (MAG); conditions: Blixt et al. (49); cited from earlier work
[9] = test system: β-GlcNAc:β1,4GalNAc-T of breast tumor BC9400; experiment: β-GlcNAc:β1,4GalNAc-T assay, breast tumor extract; format: biochemical, human
Protocol: as §1
(§4) The acceptors used for measuring the glycosyltransferase and sulfotransferase activities are given in Table I. The following are the conditions for individual enzymatic assays. Reaction temperature in all cases was 37° C. α2,3- and α2,6 sialytransferase (ST) assay reactions proceeded for 2 h in a mixture containing 100 mM sodium cacodylate buffer (pH 6.0), 7.5 mM acceptor, CMP-[9-^3H]NeuAc (typically 0.2 μCi) and 10 μl cell extract in a total volume of 20 μl [Chandrasekaran et al., 1995]. βGlcNAc:β1,4Gal-T and αGalNAc:β1,3Gal-T assay mixtures in duplicate contained 0.1M Hepes-NaOH pH 7.0, 7 mM ATP, 20 mM Mn acetate, 1 mM UDP-Gal, UDP [^14C]Gal (0.05 μCi; 327mCi/mmol; Amersham), 0.5 mM acceptor (unless otherwise stated) and the enzyme in a total volume of 20 μL. It was incubated for 4 h [Chandrasekaran et al., 2001]. βGlcNAc:β1,4GalNAc-T assay mixtures in duplicate contained 0.1M Hepes-NaOH pH 7.0, 7 mM ATP, 20 mM Mn acetate. UDP [^3H] GalNAc (0.20 μCi; 7.8 Ci/mmol: New England Nuclear Corp.) 7.5 mM acceptor (unless otherwise stated) and the enzyme in a total volume of 20 μL and incubated for 4 h [Chandrasekaran et al., 2001].
(§5) Dowex-1-C1 or Sep-Pak C18 cartridges were used to isolate radiolabeled product from the reaction mixture. For GalT, GalNAc-T and FT assays, the incubation mixture was diluted with 1 ml water and passed through a 1 ml Dowex-1-C1 column [Chandrasekaran et al., 1996; Chandrasekaran et al., 2001]. The column was washed twice with 1 ml of water. The breakthrough and the water wash contained the [^14C]-galactosylated or [^14C]-fucosylated products formed with neutral acceptors. 3 ml of 0.1M NaCl was used to obtain [^14C]-fucosylated products from sialylated acceptors after water elution. For sialytransferase assays, the radioactive products from benzylglycosides were separated by hydrophobic chromatography on Sep-Pak C18 cartridge (Waters, Milford, Mass.), and elution of the product was done with 3 ml methanol [Palcic et al., 1988]. For sulfotransferase assays, elution of the [^35S]-sulfated compound from Dowex-1-C1 column was achieved by 3 ml of 0.2M NaCl [Chandrasekaran et al., 2004].

[10] = test system: β-GlcNAc:β1,4Gal-T of breast tumor BC9400; experiment: β-GlcNAc:β1,4Gal-T assay, breast tumor extract; format: biochemical, human
Protocol: as §1, §4, §5

[11] = test system: β-GlcNAc:β1,4Gal-T of colon tumor CC9338; experiment: β-GlcNAc:β1,4Gal-T assay, colon tumor extract; format: biochemical, human
Protocol: as §1, §4, §5

[12] = test system: β-GlcNAc:β1,4GalNAc-T of colon tumor CC9338; experiment: β-GlcNAc:β1,4GalNAc-T assay, colon tumor extract; format: biochemical, human
Protocol: as §1, §4, §5

[13] = other acceptors, 1 mg protein of the tissue extract
[14] = relative to Gal-T activity with the same acceptor
[15] = Gal-T activity with the same acceptor = 100.0%

In the case of `OC[C@H]1O[C@@H](OCc2ccccc2)[C@H](O)[C@@H](O)[C@H]1O` [Galβ-O-Bn], the “α1,2-L-FT activity: incorporation of radioactive sugar” value [1] is reported as 20.6 CPM × 10^−3 and the “α1,2-L-FT activity: incorporation of radioactive sugar” value [2] is reported as 9.8 CPM × 10^−3.
With `CO[C@@H]1O[C@H](CO)[C@H](O)[C@H](O[C@@H]2O[C@H](CO)[C@@H](O)[C@H](O[C@@H]3O[C@H](CO)[C@H](O)[C@H](O)[C@H]3O)[C@H]2NC(C)=O)[C@H]1O` [Galβ1,3GlcNAcβ1,3Galβ-O-Me] the “Sialyltransferase activity (%) Cloned α2,3(O)ST” value [3] was 37.2%, the “Sialyltransferase activity (%) LNCaP α2,3(O)ST” value [4] was 1.4% and the “α1,2-L-FT plus α1,4-L-FT activity: incorporation of radioactive sugar” value [5] was 578.9 CPM × 10^−3. The “α1,2-L-FT plus α1,4-L-FT activity: incorporation of radioactive sugar” value [6] was 16.8 CPM × 10^−3.
For `CO[C@@H]1O[C@H](COS(=O)(=O)O)[C@@H](O[C@@H]2O[C@H](CO)[C@H](O)[C@H](O[C@@H]3O[C@H](COS(=O)(=O)O)[C@@H](O[C@@H]4O[C@H](CO)[C@H](O)[C@H](O[C@]5(C(=O)O)C[C@H](O)[C@@H](NC(C)=O)[C@H]([C@H](O)[C@H](O)CO)O5)[C@H]4O)[C@H](O)[C@H]3NC(C)=O)[C@H]2O)[C@H](O)[C@H]1NC(C)=O` [NeuAcα2,3Galβ1,4(6-O-Sulfo)GlcNAcβ1,3Galβ1,4(6-O-Sulfo)GlcNAcβ-O-Me], the “transfer of [14C]Fuc to the acceptor” value [7] was “efficiently transferring”.
For `CC(=O)NC1C(O)CC(OCC2OC(OC(C)C(N)C(=O)O)C(NC(C)=O)C(OC3OC(CO)C(O)C(O)C3O)C2O)(C(=O)O)OC1C(O)C(O)CO` (stereo not shown) [NeuAcα2,6(Galβ1,3)GalNAcα-O-Thr], the “fold more potent than NeuAcα2,6GalNAcα-O-Thr in inhibiting Siglec 4 (MAG) binding” value [8] is listed as 100 fold.
For `C=CCO[C@H]1O[C@H](CO[C@@H]2O[C@H](CO)[C@@H](O)[C@H](O)[C@H]2NC(C)=O)[C@@H](O)[C@H](O)[C@@H]1O` [GlcNAcβ1,6Manα-O—Al], the “b) β-GlcNAc:β1,4GalNAc-T activity: incorporation of radioactive sugar” value [9, 13] was 99.2 CPM × 10^−3, the “b) β-GlcNAc:β1,4GalNAc-T activity, percent in parentheses” value [9, 14] was 22.4% and the “a) β-GlcNAc:β1,4Gal-T activity, percent in parentheses” value [10, 15] was 100.0%. For the same compound, the “a) β-GlcNAc:β1,4Gal-T activity: incorporation of radioactive sugar” value [10, 13] was 443.6 CPM × 10^−3, the “a) β-GlcNAc:β1,4Gal-T activity, percent in parentheses” value [11, 15] was 100.0% and the “a) β-GlcNAc:β1,4Gal-T activity: incorporation of radioactive sugar” value [11, 13] was 493.4 CPM × 10^−3. The “b) β-GlcNAc:β1,4GalNAc-T activity: incorporation of radioactive sugar” value [12, 13] was 54.5 CPM × 10^−3 and the “b) β-GlcNAc:β1,4GalNAc-T activity, percent in parentheses” value [12, 14] was 11.0%.
